From US9944602B2, “Piperidinone herbicides” (E. I. DU PONT DE NEMOURS AND COMPANY, priority 2014, dated 2018)

How the values were obtained:
Format in all cases: in vivo
[1] = tested on: ragweed (common ragweed, Ambrosia elatior); experiment: Test A postemergence ragweed; conditions: 0 to 100 scale, 0 is no effect, 100 is complete control
Source text: (§1) Seeds of plant species selected from barnyardgrass (Echinochloa crus-galli), kochia (Kochia scoparia), ragweed (common ragweed, Ambrosia elatior), ryegrass, Italian (Italian ryegrass, Lolium multiflorum), crabgrass, large (large crabgrass, Digitaria sanguinalis), foxtail, giant (giant foxtail, Setaria faberii), morningglory (Ipomoea spp.), pigweed (Amaranthus retroflexus), velvetleaf (Abutilon theophrasti), wheat (Triticum aestivum), and corn (Zea mays) were planted into a blend of loam soil and sand and treated preemergence with a directed soil spray using test chemicals formulated in a non-phytotoxic solvent mixture which included a surfactant.
(§2) At the same time, plants selected from these crop and weed species and also blackgrass (Alopecurus myosuroides), and galium (catchweed bedstraw, Galium aparine) were planted in pots containing the same blend of loam soil and sand and treated with postemergence applications of test chemicals formulated in the same manner. Plants ranged in height from 2 to 10 cm and were in the one- to two-leaf stage for the postemergence treatment. Treated plants and untreated controls were maintained in a greenhouse for approximately 10 d, after which time all treated plants were compared to untreated controls and visually evaluated for injury. Plant response ratings, summarized in Table A, are based on a 0 to 100 scale where 0 is no effect and 100 is complete control. A dash (-) response means no test result.

[2] = tested on: barnyardgrass (Echinochloa crus-galli); experiment: Test A preemergence barnyardgrass; conditions: 0 to 100 scale; for Barnyardgrass plant response rating: 0 no effect, 100 complete control; for Plant response rating, Barnyardgrass: 0 is no effect, 100 is complete control
Source text: as §1, §2

[3] = tested on: blackgrass (Alopecurus myosuroides); experiment: Test A postemergence blackgrass; conditions: 0 to 100 scale, 0 is no effect, 100 is complete control
Source text: as §1, §2

[4] = tested on: foxtail, giant (giant foxtail, Setaria faberii); experiment: Test A postemergence foxtail, giant; conditions: 0 to 100 scale, 0 is no effect, 100 is complete control
Source text: as §1, §2

[5] = tested on: pigweed (Amaranthus retroflexus); experiment: Test A preemergence pigweed; conditions: 0 to 100 scale, 0 no effect, 100 complete control
Source text: as §1, §2

kochia (Kochia scoparia) [6] = experiment: Test A postemergence kochia; conditions: 0 to 100 scale, 0 is no effect, 100 is complete control
Source text: as §1, §2

[7] = tested on: barnyardgrass (Echinochloa crus-galli); experiment: Test A postemergence barnyardgrass; conditions: 0 to 100 scale, 0 is no effect, 100 is complete control
Source text: as §1, §2

corn (Zea mays) = experiment: Test A postemergence corn; conditions: 0 to 100 scale, 0 is no effect, 100 is complete control
Source text: as §1, §2

[8] = tested on: pigweed (Amaranthus retroflexus); experiment: Test A postemergence pigweed; conditions: 0 to 100 scale, 0 is no effect, 100 is complete control
Source text: as §1, §2

[9] = tested on: sedge, umbrella (small-flower umbrella sedge, Cyperus difformis); experiment: Test B flooded paddy test sedge, umbrella; conditions: Table B, Flood, scale 0 to 100
Method: (§3) Plant species in the flooded paddy test selected from rice (Oryza sativa), sedge, umbrella (small-flower umbrella sedge, Cyperus difformis), ducksalad (Heteranthera limosa), and barnyardgrass (Echinochloa crus-galli) were grown to the 2-leaf stage for testing. At the time of treatment, test pots were flooded to 3 cm above the soil surface, treated by application of test compounds directly to the paddy water, and then maintained at that water depth for the duration of the test. Treated plants and controls were maintained in a greenhouse for 13 to 15 d, after which time all species were compared to controls and visually evaluated. […] A dash (-) response means no test result.

[10] = tested on: ducksalad (Heteranthera limosa); experiment: Test B flooded paddy test ducksalad; conditions: Table B, Flood, scale 0 to 100
Method: as §3

rice (Oryza sativa) = experiment: Test B flooded paddy test rice; conditions: Table B, Flood, scale 0 to 100
Method: as §3

[11] = tested on: wheat (Triticum aestivum); experiment: Test A postemergence wheat; conditions: 0 to 100 scale, 0 is no effect, 100 is complete control
Source text: as §1, §2

[12] = tested on: ragweed (common ragweed, Ambrosia elatior); experiment: Test A preemergence ragweed; conditions: 0 to 100 scale, 0 no effect, 100 complete control
Source text: as §1, §2

[13] = tested on: ryegrass, Italian (Italian ryegrass, Lolium multiflorum); experiment: Test A postemergence ryegrass, Italian; conditions: 0 to 100 scale, 0 is no effect, 100 is complete control
Source text: as §1, §2

[14] = tested on: galium (catchweed bedstraw, Galium aparine); experiment: Test A postemergence galium; conditions: 0 to 100 scale, 0 is no effect, 100 is complete control
Source text: as §1, §2

kochia (Kochia scoparia) [15] = experiment: Test A preemergence kochia; conditions: 0 to 100 scale, 0 no effect, 100 complete control
Source text: as §1, §2

[16] = tested on: foxtail, giant (giant foxtail, Setaria faberii); experiment: Test A preemergence foxtail, giant; conditions: 0 to 100 scale, 0 no effect, 100 complete control
Source text: as §1, §2

[17] = tested on: barnyardgrass (Echinochloa crus-galli); experiment: Test B flooded paddy test barnyardgrass; conditions: Table B, Flood, scale 0 to 100
Method: as §3

[18] = tested on: ryegrass, Italian (Italian ryegrass, Lolium multiflorum); experiment: Test A preemergence ryegrass, Italian; conditions: 0 to 100 scale, 0 no effect, 100 complete control
Source text: as §1, §2

SMILES | Plant response rating, Ragweed ([1]; 125 g ai/ha) | Plant response rating, Ragweed ([1]; 500 g ai/ha) | Barnyardgrass plant response rating ([2]; 125 g ai/ha) | Plant response rating, Blackgrass ([3]; 125 g ai/ha) | Plant response rating, Blackgrass ([3]; 500 g ai/ha) | Plant response rating, Foxtail, Giant ([4]; 125 g ai/ha) | Plant response rating, Foxtail, Giant ([4]; 500 g ai/ha) | Pigweed plant response rating ([5]; 125 g ai/ha) | Pigweed plant response rating ([5]; 500 g ai/ha) | Plant response rating, Kochia (kochia (Kochia scoparia) [6]; 125 g ai/ha) | Plant response rating, Kochia (kochia (Kochia scoparia) [6]; 500 g ai/ha) | Plant response rating, Barnyardgrass ([7]; 125 g ai/ha) | Plant response rating, Barnyardgrass ([7]; 500 g ai/ha) | Plant response rating, Corn (corn (Zea mays); 125 g ai/ha) | Plant response rating, Corn (corn (Zea mays); 500 g ai/ha) | Plant response rating, Pigweed ([8]; 125 g ai/ha) | Plant response rating, Pigweed ([8]; 500 g ai/ha) | Plant response rating, Wheat ([11]; 125 g ai/ha) | Plant response rating, Wheat ([11]; 500 g ai/ha) | Ragweed plant response rating ([12]; 125 g ai/ha) | further results
O=C1NCCC(c2ccccc2C(F)(F)F)C1C(=O)Nc1ccccc1C(F)(F)F (racemic) [Compound 7] | 0 | 0 | 0 | 0 | 0 | 0 | 0 | 0 | 0 | 0 | 0 | 0 | 0 | 0 | 0 | 0 | 0 | 0 | 0 | 0 | Plant response rating, Barnyardgrass ([2]; 500 g ai/ha): 0; Plant response rating ([9]; 1000 g ai/ha): 0; Plant response rating ([10]; 1000 g ai/ha): 0; Plant response rating (rice (Oryza sativa); 1000 g ai/ha): 0; Ragweed plant response rating ([12]; 500 g ai/ha): 0; Plant response rating, Ryegrass, Italian ([13]; 125 g ai/ha): 0; Plant response rating, Ryegrass, Italian ([13]; 500 g ai/ha): 0; Plant response rating, Galium ([14]; 125 g ai/ha): 0; Plant response rating, Galium ([14]; 500 g ai/ha): 0; Kochia plant response rating (kochia (Kochia scoparia) [15]; 125 g ai/ha): 0; Kochia plant response rating (kochia (Kochia scoparia) [15]; 500 g ai/ha): 0; Foxtail, Giant plant response rating ([16]; 125 g ai/ha): 0; Foxtail, Giant plant response rating ([16]; 500 g ai/ha): 0; Plant response rating ([17]; 1000 g ai/ha): 0; Ryegrass, Italian plant response rating ([18]; 125 g ai/ha): 0; Ryegrass, Italian plant response rating ([18]; 500 g ai/ha): 0
O=C1NCCC(c2ccccc2C(F)(F)F)C1C(=O)Nc1cccc(F)c1F (racemic) [Compound 8] | 0 | 0 | 0 | 0 | 0 | 0 | 0 | 0 | 0 | 0 | 0 | 0 | 0 | 0 | 0 | 0 | 0 | 0 | 0 | 0 | Plant response rating, Barnyardgrass ([2]; 500 g ai/ha): 0; Ragweed plant response rating ([12]; 500 g ai/ha): 0; Plant response rating, Ryegrass, Italian ([13]; 125 g ai/ha): 0; Plant response rating, Ryegrass, Italian ([13]; 500 g ai/ha): 0; Plant response rating, Galium ([14]; 125 g ai/ha): 0; Plant response rating, Galium ([14]; 500 g ai/ha): 0; Kochia plant response rating (kochia (Kochia scoparia) [15]; 125 g ai/ha): 0; Kochia plant response rating (kochia (Kochia scoparia) [15]; 500 g ai/ha): 0; Foxtail, Giant plant response rating ([16]; 125 g ai/ha): 0; Foxtail, Giant plant response rating ([16]; 500 g ai/ha): 0; Ryegrass, Italian plant response rating ([18]; 125 g ai/ha): 0; Ryegrass, Italian plant response rating ([18]; 500 g ai/ha): 0
O=C1NCCC(c2ccc(C(F)(F)F)cc2)C1C(=O)Nc1cccc(F)c1Cl (racemic) [Compound 15] | 0 | 40 | 60 | 20 | 50 | 70 | 80 | 0 | 0 | 10 | 60 | 60 | 70 | 0 | 0 | 0 | 0 | 0 | 0 | 0 | Barnyardgrass plant response rating ([2]; 500 g ai/ha): 80; Plant response rating ([9]; 500 g ai/ha): 0; Plant response rating ([10]; 500 g ai/ha): 60; Plant response rating (rice (Oryza sativa); 500 g ai/ha): 0; Ragweed plant response rating ([12]; 500 g ai/ha): 80; Plant response rating, Ryegrass, Italian ([13]; 125 g ai/ha): 0; Plant response rating, Ryegrass, Italian ([13]; 500 g ai/ha): 0; Plant response rating, Galium ([14]; 125 g ai/ha): 30; Plant response rating, Galium ([14]; 500 g ai/ha): 70; Kochia plant response rating (kochia (Kochia scoparia) [15]; 125 g ai/ha): 0; Kochia plant response rating (kochia (Kochia scoparia) [15]; 500 g ai/ha): 0; Foxtail, Giant plant response rating ([16]; 125 g ai/ha): 80; Foxtail, Giant plant response rating ([16]; 500 g ai/ha): 90; Plant response rating ([17]; 500 g ai/ha): 40; Ryegrass, Italian plant response rating ([18]; 125 g ai/ha): 0; Ryegrass, Italian plant response rating ([18]; 500 g ai/ha): 0
Cc1c(F)cccc1NC(=O)C1C(=O)NCCC1c1cccc(C(F)(F)F)c1 (racemic) [Compound 26] | 0 | 0 | 30 | 0 | 40 | 30 | 90 | 0 | 0 | 0 | 0 | 30 | 80 | 20 | 40 | 0 | 0 | 0 | 20 | 0 | Barnyardgrass plant response rating ([2]; 500 g ai/ha): 90; Plant response rating ([9]; 500 g ai/ha): 0; Plant response rating ([10]; 500 g ai/ha): 50; Plant response rating (rice (Oryza sativa); 500 g ai/ha): 0; Ragweed plant response rating ([12]; 500 g ai/ha): 0; Plant response rating, Ryegrass, Italian ([13]; 125 g ai/ha): 20; Plant response rating, Ryegrass, Italian ([13]; 500 g ai/ha): 20; Plant response rating, Galium ([14]; 125 g ai/ha): 0; Plant response rating, Galium ([14]; 500 g ai/ha): 0; Kochia plant response rating (kochia (Kochia scoparia) [15]; 125 g ai/ha): 0; Kochia plant response rating (kochia (Kochia scoparia) [15]; 500 g ai/ha): 0; Foxtail, Giant plant response rating ([16]; 125 g ai/ha): 60; Foxtail, Giant plant response rating ([16]; 500 g ai/ha): 90; Plant response rating ([17]; 500 g ai/ha): 40; Ryegrass, Italian plant response rating ([18]; 125 g ai/ha): 0; Ryegrass, Italian plant response rating ([18]; 500 g ai/ha): 50
O=C1NCCC(c2cccc(C(F)(F)F)c2)C1C(=O)Nc1ccc(F)cc1F (racemic) [Compound 27] | 0 | 0 | 60 | 0 | 0 | 40 | 70 | 0 | 0 | 0 | 0 | 50 | 60 | 0 | 0 | 0 | 0 | 0 | 0 | 0 | Barnyardgrass plant response rating ([2]; 500 g ai/ha): 90; Plant response rating ([9]; 500 g ai/ha): 0; Plant response rating ([10]; 500 g ai/ha): 0; Plant response rating (rice (Oryza sativa); 500 g ai/ha): 0; Ragweed plant response rating ([12]; 500 g ai/ha): 0; Plant response rating, Ryegrass, Italian ([13]; 125 g ai/ha): 0; Plant response rating, Ryegrass, Italian ([13]; 500 g ai/ha): 0; Plant response rating, Galium ([14]; 125 g ai/ha): 0; Plant response rating, Galium ([14]; 500 g ai/ha): 0; Kochia plant response rating (kochia (Kochia scoparia) [15]; 125 g ai/ha): 0; Kochia plant response rating (kochia (Kochia scoparia) [15]; 500 g ai/ha): 0; Foxtail, Giant plant response rating ([16]; 125 g ai/ha): 80; Foxtail, Giant plant response rating ([16]; 500 g ai/ha): 90; Plant response rating ([17]; 500 g ai/ha): 0; Ryegrass, Italian plant response rating ([18]; 125 g ai/ha): 0; Ryegrass, Italian plant response rating ([18]; 500 g ai/ha): 0
